The text below walks through data of article PMC10072326, “Promising anticancer agents based on 8-hydroxyquinoline hydrazone copper(II) complexes” (Frontiers in Chemistry, 2023).

The subject of one data set is plasmid DNA (H2B-GFP). Kind of data set: Agarose gel electrophoresis of plasmid DNA (DNA migration assay). The data set is classed as biochemical. The conditions noted are these: 200 and 400 μM; overnight; room temperature. As to the method:
The nature of the interaction between the complexes and pure plasmid DNA was evaluated by agarose gel electrophoresis as described previously with minor modifications (21). Briefly, free ligands, copper complexes, and cisplatin (200 and 400 μM; in 20 μL total volume) were incubated overnight at room temperature with plasmid DNA (200 ng, H2B-GFP, Addgene #11680). NaN3 (final: 37.5 mM in ddH2O) was used as a ROS scavenger. Samples were run on a 1% agarose gel (100 V, 60 min). The experiments were carried out with two biological replicates, and ImageJ software was used to quantify and analyse the intensity of the bands.
In addition to thermal denaturation, we performed a cell-free DNA binding assays followed by gel electrophoresis to further investigate the nature of the interaction between the complexes and DNA. The assay relies on the fact that the relative amount of the supercoiled form of plasmid DNA will change upon the occurrence of nicks since the relaxed form migrates slower and can be easily detected on the gel. […] The ligands had little to no effect on DNA migration except L^7 (Fig. S24A). However, incubation of plasmid DNA with complexes 1 - 8 confirmed binding to DNA and changed the supercoiling status by increasing the nicked circular form (Fig. S24). […] To understand whether the induction of DNA nicks requires ROS, the samples were pre-incubated with a ROS scavenger, NaN3. […]

Data set [1] in a line: Thermodynamic solubility at pH 7.4. Format: physicochemical. Particulars: Cu(II) complexes; pH 7.40; 20 mM HEPES; 25.0°C. As to the method: Thermodynamic solubility (S) was measured for the new ligands, L^7 and L^8, since data for the rest of the series was previously reported (9), and for selected Cu(II) complexes: 1, 5 and 6. Solubility was measured for the saturated solutions in water at pH 7.40 in 20 mM HEPES at 25.0 ± 0.1 °C. The concentration was determined by UV-Vis spectrophotometry using the stock solutions of the compounds with known concentrations dissolved in 100% DMSO, 50% and 25% (v/v) DMSO/buffered aqueous solutions for the calibration.

In the next data set the test system is A-549 cells. In words: ROS activation via dihydroethidium staining, flow cytometry. Format: cell-based. An excerpt:
Since reactive oxygen species appeared to be involved in the nicking activity of the complexes (Supplementary Figure S24), we investigated whether there was an increase in ROS formation in cells upon drug treatment. Dihydroethidium (DHE) is a reduced form of ethidium, after oxidation with superoxide (ROS), it is converted into 2-hydroxy ethidium, which is a chemical that emits red fluorescence and intercalates DNA. […] Similar results were obtained using A-549 cells, but with much milder induction of ROS except for 8, which remained high (Supplementary Figure S26).
5 × 10^4 number of A-375 and A-549 cells were seeded on 12-well plates, and the next day cells were treated with either copper complexes (calculated IC70 values) or cisplatin (15 μM). Following 48 h of treatment, cells were trypsinized, centrifuged and resuspended in PBS solution supplemented with 1% fetal bovine serum (FBS) (10^6 cells/mL).
Oxidative stress levels were assessed by Muse Oxidative Stress Kit (Luminex, MCH100111) using the same protocol as previously described (21).
A general note: Flow cytometry measures light scatter and fluorescence of single cells or particles in a stream.

Each structure is given as a SMILES string.

On to `CC(=O)[O-].O=C(NN=Cc1ccc2cccc([O-])c2n1)c1ccccc1.[Cu+2]` [Complex 1, [Cu(HL^1)(AcO)]], for which, in the data set on plasmid DNA (H2B-GFP), the “effect on plasmid DNA migration / nicking” value was “highest nicking efficiency”.

As to `[Cu+2].[O-]C(=NN=Cc1ccc2cccc([O-])c2n1)c1ccc(F)cc1` [Complex 3, [Cu(L^3)]3], the “thermodynamic solubility S 7.4” value in data set [1] is less than 1 µM. As for `COc1ccc(C([O-])=NN=Cc2ccc3cccc([O-])c3n2)cc1.[Cu+2]` [Complex 5, [Cu(L^5)]3], the “ROS induction, in words” value in the data set on A-549 cells is “milder ROS induction”.
